Results from paper PMC12567515, “Assessment of Carrier-Free Metallacarboranes for Targeted Radiation Therapies PBFT and BNCT: Comparative Cellular Effects and Dosimetry Studies with [o-FESAN]^− in Breast Cancer Cells” (Pharmaceuticals, 2025).

Assays:
MDA-MB-231 cells [1] = experiment: Cytotoxicity, MTT assay before irradiation; format: cell-based, human; settings: MDA-MB-231, 24 h treatment
Experimental: (§1) The cytotoxicity of Na[o-FESAN] in breast cancer cells was evaluated to help the selection of the work concentrations for the uptake and irradiation studies. Moreover, the general requirements of therapeutic drugs include, among others, low cytotoxicity and high tumor uptake.
(§2) Before the irradiation studies, the concentrations of Na[o-FESAN] were selected. SKBR-3 and MDA-MB-231 cells were counted with a Neubauer chamber using Trypan Blue exclusion and a Zeiss Primovert microscope, seeded in 96-well plates (1–2 × 10^4 cells/200 µL medium) and incubated at 37 °C for 24 h to adhere. Then, the medium was discarded, and cells were incubated with Na[o-FESAN] at serial concentrations in complete medium in the range 1–300 µM for 24 h. After incubation, the cellular viability was determined using the MTT assay as previously described.

SKBR-3 cells [2] = experiment: Cytotoxicity, MTT assay before irradiation; format: cell-based, human; settings: SKBR-3, 24 h treatment
Experimental: as §1, §2

[3] = parameters: method as in PMID 24737689, PMID 35470838; settings: cited from earlier work
[4] = tested on: MDA-MB-231 xenograft-bearing nude mice; experiment: Biodistribution (boron by ICP-OES) in MDA-MB-231 xenograft model; format: in vivo, mouse; settings: 7.5 mg B/kg i.v., 1 and 4 h post-injection
Experimental: The biodistribution of Na[o-FESAN] (7.5 mg B/kg, i.v.) was evaluated in an MDA-MB-231 breast cancer xenograft model, and the results at 1 and 4 h are shown in Figure 2.
All animal experiments were approved by the Animal Care and Use Committee of the Institute of Science Tokyo and performed in accordance with the Guidelines for the Care and Use of Laboratory Animals as stated by the Institute of Science Tokyo (Approval number “D2021007”). All animals were maintained under controlled conditions of temperature and humidity with ad libitum water and feeding. MDA-MB-231 tumor-bearing mice (Balb/cSlc-nu/nu, female, 5–6 weeks old, 14–20 g, Sankyo Labo Service Co., Ltd., Hamamatsu, Japan) were prepared by injecting subcutaneously (s.c.) a suspension of MDA-MB-231 cells (8.0 × 10^5 cells/mouse) directly into the right thigh. The mice were kept on a regular chow diet and water, and maintained under a 12 h light/dark cycle in an ambient atmosphere. When the tumor diameter became 5 to 7 mm, the mice were injected via the tail vein with 200 µL PBS solution of Na[o-FESAN] (7.5 mg B/kg). […] After filtering through a hydrophobic filter, boron concentration was measured by inductively coupled plasma optical emission spectroscopy (ICP-OES) using an iCAP 7400 Duo elemental analyzer (Thermo Fisher Scientific Inc., Waltham, MA, USA).

MDA-MB-231 cells [5] = experiment: Viability and proliferation after thermal neutron irradiation (BNCT); format: cell-based, human
Experimental: (§3) For neutron irradiation, SKBR-3 and MDA-MB-231 cells were incubated with Na[o-FESAN] at 50 and 100 µM and were irradiated with thermal neutrons at the Triga Mark II nuclear reactor at the University of Pavia. […] Both surviving SKBR-3 and MDA-MB-231 cells that were treated with Na[o-FESAN] […] This clearly indicates the important contribution of neutron capture to induce a long-term cytotoxic effect. Another important point is that the toxic effect was observed using Na[o-FESAN] containing natural B. In fact, the amount of internalized B measured by ICP-MS after 24 h incubation with 50 or 100 µM Na[o-FESAN] contained only 19.9% of the active ^10B isotope. Assuming that in the case of epithelial tumors (with a diameter ranging from 15–20 µm), a density of ca. 10^8 cells for cm^3 is a reasonable number, [76] from the data obtained by ICP-MS analysis, it was possible to calculate the amount of ^10B internalized in cells expressed in ppm (µg/g).
(§4) SKBR-3 and MDA-MB-231 cells were seeded in 25 cm^2 flasks (12 flasks for each cell line) at a density of 6.5 × 10^5 cells. […]
(§5) Twenty-four hours after irradiation, cells were detached with 0.05% trypsin and 0.02% EDTA, and cell viability was evaluated using the trypan blue exclusion test and reported as the percentage of cells observed in treated and/or irradiated samples with respect to that observed in control cells. […] The cell growth was followed for 10 days, and at pre-determined times, the cells were washed with PBS, detached with 0.05% trypsin and 0.02% EDTA, and transferred into falcon tubes. Then, cells were sonicated for 30 s at 30% power in ice, and the total cell protein concentration (that is, proportional to the number of cells) from cell lysates was determined by the Bradford method, using bovine serum albumin as a standard. The cell growth rate was calculated as follows: [(number of cells(ti) − number of cells(t0))/number of cells(t0)] × 100 where (ti) is the number of cells measured at the various time intervals and (t0) is the number of cells at the starting point (t = 0) of the proliferation assay.

SKBR-3 cells [6] = experiment: as above; format: cell-based, human; settings: SKBR-3, 50 and 100 µM, 24 h, thermal neutrons 15 min at 30 kW, growth followed 10 days
Experimental: as §3, §4, §5

MDA-MB-231 cells [7] = experiment: Morphological analysis by TEM; format: cell-based, human; settings: MDA-MB-231, 50 µM, 24 h
Experimental: Transmission electron microscopy (TEM) was used to assess the structural integrity of MDA-MB-231 cells and to examine the effects at the organelle level before and 2 h after irradiation with proton beams (2.0 MeV).
MDA-MB-231 cells were seeded into 6-well plates at approx. 70% confluence. After 24 h, cells were treated with Na[o-FESAN] at 50 µM for 24 h. After incubation, cells were irradiated with a proton beam as described above and processed for TEM analysis 2 h later, following a previously described method. Briefly, the preparation of the cells included several steps of fixation: primary fixation with 3% glutaraldehyde in 0.1 M sodium cacodylate buffer, pH 7.3; secondary fixation with 1% osmium tetroxide in 0.1 M sodium cacodylate buffer, pH 7.3 for 3 h; tertiary fixation and contrasting with 0.5% uranyl acetate in the same buffer for 1 h, dehydration with ethanol and resin (Epon-Araldite) (Merck, Darmstadt, Germany) infiltration and embedding. The stained cells were then photographed and studied using a JEOL 100-SX electron microscope JEOL, Tokyo, Japan.

[8] = parameters: method as in PMID 36373493; settings: cited from earlier work
MDA-MB-231 cells [9] = experiment: Intracellular ROS (H2DCF-DA) after proton irradiation; format: cell-based, human; settings: MDA-MB-231, 50 and 100 µM, 24 h, protons 0.235 Gy, up to 48 h post-irradiation
Experimental: (§6) In non-irradiated cells (with/without treatment), no appreciable ROS formation was observed.
(§7) Intracellular ROS levels were measured using the 2′,7′-dichlorodihydrofluorescein diacetate (H2DCF-DA) fluorescent probe as previously described. […] Then, the probe (10 µM) in colorless DMEM medium (FluoroBrite™ DMEM, Gibco®, Waltham, MA, USA) was incubated with the cells for an additional 30 min. at 37 °C. Later, the medium was removed and replaced by a fresh one. The fluorescence intensity was continuously measured up to 48 h with a Varioskan LUX scanning multimode reader (Thermo Fisher Scientific, Waltham, MA, USA). Results of fluorescence (mean ± SD) were expressed as the fold change in fluorescence levels compared with controls (non-irradiated treated cells).

SKBR-3 cells [10] = experiment: as above; format: cell-based, human; settings: SKBR-3, 50 and 100 µM, 24 h, protons 0.235 Gy, up to 48 h post-irradiation
Experimental: as §6, §7

Substance: [3,3′-Fe(1,2-C2B9H11)2]^− [Na[o-FESAN]]
- IC50 (MDA-MB-231 cells [1]): 103 ± 24.9 µM
- IC50 (SKBR-3 cells [2]): 83.5 ± 18.6 µM
- Solubility in water [3]: approx. 1 M
- Clearance in blood and main organs (heart, liver, lung, kidney, spleen, muscle) [4]: slow
- Tumor uptake [4]: remained relatively high
- Proliferation of surviving cells after neutron irradiation (MDA-MB-231 cells [5]; MDA-MB-231, 50 and 100 µM, 24 h, thermal neutrons 15 min at 30 kW, growth followed 10 days): marked inhibition of proliferation
- Number of viable cells after treatment and neutron irradiation vs non-treated irradiated cells (MDA-MB-231 cells [5]; MDA-MB-231, 24 h post irradiation, trypan blue): significantly different
- Proliferation of surviving cells after neutron irradiation (SKBR-3 cells [6]): marked inhibition of proliferation
- Cell morphology (TEM), no irradiation (MDA-MB-231 cells [7]): moderate amount of vacuolization
- Cell morphology (TEM), 2 h after proton irradiation (MDA-MB-231 cells [7]; proton beam 2.0 MeV): necrosis
- Stability in cellular medium [8]: did not suffer degradation
- ROS levels after proton irradiation vs non-irradiated controls (MDA-MB-231 cells [9]): increased ROS levels in a dose-dependent manner
- ROS levels after proton irradiation vs non-irradiated controls (SKBR-3 cells [10]): increased ROS levels in a dose-dependent manner
